In patent US8178669B2, “Fluorescent probe for peroxynitrite” (The University of Tokyo, priority 2005, dated 2012):

What was measured:
[1] = Reaction of Compound 4 and peroxynitrite (fluorescence spectrum); conditions: 10 μmol/L Compound 4, 100 mmol/L phosphate buffer pH 7.4; peroxynitrite 1-50 μmol/L; after 60 seconds; excitation 505 nm
Protocol: A 10 μmol/L solution of Compound 4 was prepared by diluting a 20 mmol/L solution of Compound 4 in DMF with a 100 mmol/L phosphate buffer (pH 7.4). The solution was added with peroxynitrite solutions of 2 mmol/L, 5 mmol/L, 10 mmol/L, 20 mmol/L and 80 mmol/L at peroxynitrite final concentrations of 1, 2, 4, 5, 10, 20 or 50 μmol/L with stirring, and after 60 seconds, fluorescence spectrum was measured (excitation wavelength: 505 nm).

[2] = Reaction of Compound 4 and various reactive oxygen species: nitrogen monoxide; conditions: 10 μmol/L Compound 4, pH 7.4; NOC-13 100 μmol/L, 30 minutes
Protocol: (§1) A 10 μmol/L solution of Compound 4 was prepared by diluting a 20 mmol/L solution of Compound 4 in DMF with a 100 mmol/L phosphate buffer (pH 7.4), and used for the test. The prepared solution was treated under the following conditions for 3 minutes (except for (f), for which treatment time was 30 minutes).
(f) NOC-13 (nitrogen monoxide discharging agent, Dojindo Laboratory) was added to make a final concentration of 100 μmol/L.
(§2) After the reaction, change of fluorescence spectrum under each condition was measured to compare reactivities of the compound with (#2) peroxynitrite, (#3) hydrogen peroxide, (#4) singlet oxygen, (#5) hydroxyl radical, (#6) hypochlorite ion, and (#7) nitrogen monoxide.

[3] = Reaction of Compound 4 and various reactive oxygen species: hydrogen peroxide; conditions: 10 μmol/L Compound 4, pH 7.4; hydrogen peroxide 1 mmol/L, 3 minutes
Protocol: as §1
(b) Hydrogen peroxide was added to make a final concentration of 1 mmol/L.
as §2

[4] = Reaction of Compound 4 and various reactive oxygen species: hypochlorite ion; conditions: 10 μmol/L Compound 4, pH 7.4; hypochlorite ions 10 μmol/L, 3 minutes
Protocol: as §1
(e) Hypochlorite ions were added to make a final concentration of 10 μmol/L.
as §2

[5] = Reaction of Compound 4 and various reactive oxygen species: singlet oxygen; conditions: 10 μmol/L Compound 4, pH 7.4; hydrogen peroxide 1 mmol/L and hypochlorite ions 100 μmol/L, 3 minutes
Protocol: as §1
(c) Hydrogen peroxide and hypochlorite ions were added to make final concentrations of 1 mmol/L and 100 μmol/L, respectively.
as §2

HeLa cells = assay: Imaging of peroxynitrite using Compound 4 in HeLa cells; assay type: cell-based; conditions: HeLa cells loaded with 2 μmol/L Compound 4, 20 minutes; peroxynitrite 10 μmol/L; excitation 470 to 490 nm, emission 510 to 550 nm
Protocol: HeLa cells were precultured in Dulbecco's modified Eagle's medium (DMEM) supplemented with 10% (v/v) fetal bovine serum, penicillin (100 units/mL), and streptomycin (100 μg/mL) in a 5% CO2 incubator. These HeLa cells were inoculated on a 35 mm glass bottom dish (MatTek Corporation), and further cultured overnight in DMEM. After 24 hours, the medium was removed, and the HeLa cells were washed with Hank's balanced salt solution (HBSS, 2×1 mL). The HeLa cells were added with 2 mL of 2 μmol/L solution of Compound 4 in HBSS (containing 0.01% DMF and 0.01% Cremophor EL (SIGMA) as auxiliary solvents), and incubated at room temperature for 20 minutes. Then, the HeLa cells were washed with HBSS (2×1 mL). Fluorescence images before addition of peroxynitrite and after addition of peroxynitrite at a final concentration of 10 μmol/L were photographed at an excitation wavelength of 470 to 490 nm and fluorescence emission wavelength of 510 to 550 nm.
Among the photographs, (A) is a differential interference microscope image of HeLa cells loaded with Compound 4, (B) is a pseudo color fluorescence image of fluorescence intensity before addition of peroxynitrite, (C) is a pseudo color fluorescence image of fluorescence intensity after addition of peroxynitrite, and (D) is a fused image of (A) and (B).

[6] = Reaction of Compound 4 and various reactive oxygen species: hydroxyl radical; conditions: 10 μmol/L Compound 4, pH 7.4; hydrogen peroxide 1 mmol/L and iron(II) sulfate 50 μmol/L, 3 minutes
Protocol: as §1
(d) Hydrogen peroxide and iron(II) sulfate were added to make final concentrations of 1 mmol/L and 50 μmol/L, respectively.
as §2

[7] = Reaction of Compound 4 and various reactive oxygen species: peroxynitrite
Protocol: as §1
(a) Peroxynitrite was added to make a final concentration of 10 μmol/L.
as §2

## CC1=C(C#N)C(C)=[N+]2C1=C(c1ccc(O)cc1OCC(=O)O)c1c(C)c(C#N)c(C)n1[B-]2(F)F [Compound 4, 2,6-dicyano-8-(4-hydroxy-2-carboxymethoxyphenyl)-1,3,5,7-tetramethyl-4,4-difluoro-4-bora-3a,4a-diaza-s-indacene]
[1]
  change of fluorescence intensity on addition of peroxynitrite: peroxynitrite addition amount-dependent increase in fluorescence intensity was observed
[2]
  fluorescence after addition of nitrogen monoxide: did not emit fluorescence at all
[3]
  fluorescence after addition of hydrogen peroxide: did not emit fluorescence at all
[4]
  fluorescence after addition of hypochlorite ion: did not emit fluorescence at all
[5]
  fluorescence after addition of singlet oxygen: did not emit fluorescence at all
HeLa cells
  fluorescence imaging of peroxynitrite in cells: fluorescence imaging of peroxynitrite was performable
[6]
  fluorescence after addition of hydroxyl radical: did not emit fluorescence at all
[7]; 10 μmol/L Compound 4, pH 7.4, peroxynitrite 10 μmol/L, 3 minutes
  fluorescence after addition of peroxynitrite: emitted intense fluorescence
[7]; compared with hydrogen peroxide, singlet oxygen, hydroxyl radical, hypochlorite ion, nitrogen monoxide
  selectivity to peroxynitrite over other reactive oxygen species: high selectivity to peroxynitrite
